In ChEMBL document CHEMBL3507680, “University of Dundee, Gates Library screen for HepG2 cell viability”:

Experiment: Human HepG2 cell viability assay in 384 well format
Assay type: toxicity, cell-based
Design: dose 125 nL, time 70.5 hour; concentration not given beside the values
Details: HepG2 cells, read-out: Inhibition

SMILES | cytotoxicity at 70.5 h
Cc1cnc(CN2CCC(N(C)Cc3nnc(C)n3C)C2)cn1 (centres undefined) | -0.164%
Cc1ncc(CC(=O)N2CCC3(CCC(=O)N(CCO)C3)CC2)c(=O)[nH]1 | -13.5%
O=C(CCn1cncn1)NC1(c2cccc(Br)c2)CCC1 | -2.65%
CN1C(=O)CCc2cc(NC(=O)C3CC(=O)N(CC4CC4)C3)ccc21 (centres undefined) | 2.59%
CCC(=O)NC1CCCN(C(=O)Nc2cc(-c3ccccc3)on2)C1 (centres undefined) | -10.8%
Cn1ccnc1CCC1CCCCN1Cc1nccn1C (centres undefined) | 14.9%
COCCn1ccc(=O)c(OCC(=O)Nc2cccc(C(C)=O)c2)c1C | -4.4%
Cc1cc(CNC(=O)NC(C)c2ccncc2)no1 (centres undefined) | -9.9%
Cc1nc(CN2CCCC(N(C)Cc3nccn3C)C2)no1 (centres undefined) | 21.6%
Cc1ccc(CN2CC3(CCN(C(=O)Cc4ccc(Cl)cc4)C3)C2)o1 | -5.73%
CCc1ccc(CN2CCCCC2c2n[nH]cc2-c2cc(C)no2)cc1 (centres undefined) | -5.56%
CCc1nc(CN(C)C2CCN(CC(F)(F)F)C2)no1 (centres undefined) | -4.19%
CC(C(=O)NCC(C)(C)c1ccc2c(c1)OCO2)n1ccnc1 (centres undefined) | -1.09%
Cc1cc(C(=O)N2CCCC(n3cncn3)C2)c(C)n1CC1CC1 (centres undefined) | -2.26%
CN(C)c1ncc2c(O)nc(C3CCCNC3)cc2n1 (centres undefined) | -3.16%
CC(c1cccnc1)N1CCN(CCc2ccccn2)CC1 (centres undefined) | -0.575%
Cc1cc(C)n(CC2CCCCN2C(=O)CCc2ccncc2)n1 (centres undefined) | -0.893%
CCn1ccnc1CN1CCCN(C(=O)Cc2ccc(C)s2)CC1 | 26.4%
CCc1noc(CN(CCS(C)(=O)=O)C(C)(C)C)n1 | 20.2%
Brc1cccc(-c2noc(C3COCCO3)n2)c1 (centres undefined) | -9.75%
CC(C)N1c2sc(-c3ccccc3)nc2CC1C(=O)NC1CCCC1 (centres undefined) | -6.93%
Cn1nccc1-c1nc2c(cc1C(=O)O)CCN(CC1CC1)CC2 | 12.7%
Cn1c(Cn2cccn2)nnc1C1CCCN(c2ccncc2)C1 (centres undefined) | -8.1%

SMILES | cytotoxicity at 70.5 h
O=C(N[C@@H]1CN(c2ncccn2)C[C@@H]2CCCO[C@@H]21)c1ccnnc1 | -6.03%
CCN1CCN(C(=O)c2cccc(CN3CCOCC3)c2)CC1 | -5.52%
Cc1cccnc1NC(=O)c1ccc(-n2cncn2)nn1 | 1.65%
CC(C)C1CN(C(=O)c2ccccc2)CCS1 (centres undefined) | 2.34%
Cc1nc(C(C)C)sc1C(=O)NCCn1nc2ccccn2c1=O | -1.52%
COc1cc(C(=O)N2C[C@H]3CC[C@@H]2CN(Cc2cscn2)C3)ccn1 | -22.3%
CC(C)c1nnc(NC(=O)c2cccc(OCC(F)(F)F)n2)[nH]1 | -3.15%
O=C(NCCCN1CCC(OC2CCCCC2)CC1)C1CCCC1 | -0.377%
CN1CC(NC(=O)CCCc2cc(Cl)sc2Cl)CCC1=O (centres undefined) | -6.53%
Cc1nccc([C@@H]2C[C@@H]3CCN(Cc4ccco4)C[C@H]3O2)n1 | 12.2%
Cc1nc(N(C)C)nc(NCCc2cnccn2)c1C | -1.68%
O=C(NC1CCCCC1)N1C[C@@H]2OCCN(C(=O)c3ccco3)[C@@H]2C1 | 0.645%
CN(C)C(=O)CN1CCC(c2c(C(N)=O)sc3ncccc23)C1 (centres undefined) | -5.25%
CC(=O)N1CCC(c2cc(Nc3ncccn3)nc(C)n2)C1 (centres undefined) | -6.88%
O=C(CN1CCN(CC(O)C2CC2)CC1)NCc1ccccc1 (centres undefined) | -8.44%
CNC(=O)c1ccc2c(OC)n(C)nc2c1 | -1.72%
CN1CCN(Cc2nnc(C3CCN(CC4CC4)CC3)n2C)CC1 | -2.48%
c1ccc(-c2nc(CNC3CCCN(c4cccnn4)C3)no2)cc1 (centres undefined) | 18.6%
CC(C)COCCC(=O)NS(=O)(=O)c1ccc(Cl)s1 | -16.7%
O=C(O)c1ccccc1CN1CCCC(Cc2ccn[nH]2)C1 (centres undefined) | -8.52%
Cc1ccccc1N1CCCN(c2ccncn2)CC1 | 2.64%
O=S(=O)(NC1=NCN(CCc2cccs2)CN1)c1ccc(Br)cc1 | -18.9%
O=C1NCCN1C1CCN(CCOc2ccccc2F)CC1 | -5.97%

SMILES | cytotoxicity at 70.5 h
Cc1cn2c(=O)c(-c3ccnc(NC4CCOCC4)n3)cnc2s1 | -4.12%
CCOCCn1c(=O)n(CCC=C(C)C)c2cc(C(=O)O)cnc21 | -4.64%
CCCn1ncc(C(=O)N(CCOC)Cc2c(C)nn(CC)c2C)c1C | -7.73%
Cc1nc(C)n(CC(=O)N2CCCC(c3nc(C)n4c(C)csc34)C2)n1 (centres undefined) | 0.595%
COC(=O)c1ncccc1N1CCC(C(O)c2ccccc2)CC1 (centres undefined) | -6.81%
CCOc1nnc(CN2CCC(c3cc4ccccc4[nH]3)CC2)s1 | -5.08%
Cc1cc(C)c(CNc2ncnc3ccccc23)c(=O)[nH]1 | -2.78%
COCCN1CCN(CCS(C)(=O)=O)CC1C (centres undefined) | 8.39%
Cc1cc(=O)n2ncnc2n1CC(O)c1cc(F)ccc1F (centres undefined) | -11.1%
Cc1csc(N2CCN(C3CCc4ccccc4C3)CC2)n1 (centres undefined) | 13%
CC(=O)N1CCC(c2ccnc(Nc3cnccn3)n2)C1 (centres undefined) | -22.3%
CC(C)C[C@H](NC(=O)NC1CCS(=O)(=O)C1)C(=O)NCc1cccnc1 (some centres undefined) | -16%
O=C(NC1CC1)N(CCc1ccccc1)C1CCOC1 (centres undefined) | 12.1%
CN(C)c1ncc(-c2cc(C(=O)NCCO)n(CC3CC3)c2)cn1 | -6%
CC(C)(C)OC(=O)N1CCCC[C@H]1C(=O)NCc1nccs1 | -9.82%
Cc1nnsc1C(=O)N1C[C@H]2CC[C@@H]1CN(c1cnccn1)C2 | -5.21%
Cc1ccc(C(=O)NC2CCN(Cc3nc(C(C)C)no3)CC2)s1 | -5.38%
Cc1oc(-c2ccco2)nc1CN1CCc2cnc(C(C)C)nc2C1 | -12%
Cc1nn(CN(CC2CCOC2)C2CC2)c(=O)c2ccccc12 (centres undefined) | -3.01%
CCCc1noc(CN2CCCC2c2ccsc2)n1 (centres undefined) | -17.8%
O=C(C1CCOC1)N1CCC2(CCN(Cc3nccs3)CC2)CC1 (centres undefined) | -15.1%
Cc1cc(CN2CCN(C(=O)c3sccc3C(C)C)CC2)no1 | -0.556%
Cc1cc(CN(Cc2ccccc2)CC(O)c2cccs2)on1 (centres undefined) | 8.6%

SMILES | cytotoxicity at 70.5 h
CC(C)NC(=O)NC[C@@]1(COc2cnccn2)C[C@@H](O)[C@@H](O)C1 | 3.08%
Cc1ccc(C)c2c(O)cc(CN3CCNC(=O)C3C)nc12 (centres undefined) | -8.28%
CC(C)NC(=O)N1CCC2(CC1)CN(C(=O)NC(C)C)CCO2 | -10.3%
c1ccc(-c2nc(CN3CCCC(Cn4cncn4)C3)no2)cc1 (centres undefined) | 2.09%
Cc1ncccc1CNc1ccc(OCCO)nc1 | -6.19%
CCN(CC(=O)N(C)C)C(=O)c1cc(-c2cccc(Cl)c2)no1 | 3.05%
c1ccc(-c2ccc(C3CNCCO3)nc2)cc1 (centres undefined) | -19.9%
CN1CCCC(CCC(=O)NCCc2nnc(N)s2)C1 (centres undefined) | 9.25%
CSc1ccccc1NC(=O)C1CSc2ncc(C)c(=O)n2C1 (centres undefined) | -10.7%
Cc1cc2c(=O)n(CCOCCO)cnc2s1 | -5.77%
CC1CN(C(=O)Nc2cc(C(F)(F)F)c[nH]c2=O)CCO1 (centres undefined) | -8.88%
Cc1ccc(CCCC(=O)N(C)CCN2CCOCC2)cc1 | 13.8%
Cc1c(Cl)c(C(F)(F)F)nn1C(C)C(=O)NN1CCN(C)CC1 (centres undefined) | -3.23%
CCn1c(N)nc2cc(C(=O)N3CCCOCC3)cnc21 | -6.56%
Cc1c(S(=O)(=O)NCC(C)C)cnn1C | -14.3%
O=C(O)c1cc(S(=O)(=O)Nc2ccc(F)c(Cl)c2)cc2c1OCCO2 | 3.36%
Cc1ccc(C(=O)N2Cc3c(CN(C)C)nn(C)c3C2)cc1C | 4.85%
N#Cc1ccc(N2CCC3(CC2)CC(Oc2cccnc2)CO3)cc1 (centres undefined) | 9.42%
COC(=O)C1=C(C)N=C2SCC(=O)N2C1c1cn(C)nc1C (centres undefined) | -9.65%
Cc1cc(C)n(CC2CCCN2Cc2nc(N)c3ccccc3n2)n1 (centres undefined) | -3.06%
CN(C)C(=O)N1CCCn2nc(CNC(=O)CCc3ccsc3)cc2C1 | -9.25%
Cc1ccc(O[C@@H]2C[C@H]3CN(C(=O)Cc4ccccn4)CCN3C2)cc1 | 17.9%
CC(C)NC(=O)N1C[C@H](OCc2cccnc2)[C@H]2COC[C@H]21 | 0.936%

SMILES | cytotoxicity at 70.5 h
Cc1nc2c(c(N3CCC4(CCCNC4=O)C3)n1)CCC2 (centres undefined) | -4.16%
CC(C)NC(=O)Nc1ccc(CS(=O)(=O)C(C)(C)C)cc1 | -12.3%
Cc1cc(C)c(C(=O)N[C@H](C(N)=O)c2ccccc2)c(=O)[nH]1 | 12.8%
COc1ccc(C2C3=C(COC3=O)Nc3[nH]nc(C)c32)cc1OC (centres undefined) | -22.8%
CCn1c(N)nc2cc(C(=O)N(C)Cc3cc(C(C)(C)C)n[nH]3)cnc21 | -5.41%
CN(Cc1ccco1)C(=O)C1CSCN1C(=O)C1CCC1 (centres undefined) | -8.79%
COc1cccc(CC(=O)N2CCC(Cc3nnc(SC)n3C)CC2)c1 | -23.6%
CC(C)=CCN1Cc2nnc(C3CCOCC3)n2C(Cc2c[nH]cn2)C1 (centres undefined) | -5.43%
O=C(NCCN1CCCCC1)c1nc2ccccc2c(=O)[nH]1 | 4.35%
O=C1CC2(CCN(c3nccc(-c4cc(C(=O)O)ccn4)n3)CC2)CN1 | -8.17%
COc1ccc(OC)c(NC(=O)c2c(C)cn(C)c2CC(=O)O)c1 | -5.28%
CCc1noc(CN(C)C(=O)C(C)(C)Oc2cccc(Cl)c2)n1 | 7.49%
O=C(NCCNc1cnccn1)NCC1CCS(=O)(=O)C1 (centres undefined) | -7.83%
Cn1cnc2c(N3CCOCC3)nc(C3CCNCC3)cc21 | -1.78%
O=C(c1ccccc1F)N1CCC2(CC1)CC(N1CCCC1)CO2 (centres undefined) | -7.88%
Cc1c(Br)cnn1CCC(=O)N(C)Cc1c(Cl)cnn1C | 30.7%
CCCn1[nH]c(CNc2ccccc2)nc1=O | -2.36%
Cc1ccc(CNCc2ccc(N3CCC(CO)CC3)nc2)c(C)c1 | -5.56%
Cc1occc1C(=O)N1CCCn2cnc(CN3CCCC3=O)c2C1 | -0.779%
CCN(CC)CC1CN(Cc2nccs2)Cc2nccn2C1 (centres undefined) | -9.42%
C1CC(CN2CC[C@@H]3O[C@@H](c4nnc(C5CC5)o4)C[C@H]3C2)CCO1 | -9.09%
Cn1c(Cn2ccnc2)nnc1C1CCN(C(=O)C2(C)CC2)CC1 | -9.41%
